In BindingDB's records for doi:10.1021/jm701358v (2008):

Target: Bcl-xL (Homo sapiens)
Assay: Binding affinity to human Bcl-xL protein by fluorescence polarization assay

Q: How did the Ki turn out when O=C(c1ccc(Oc2ccccc2)cc1)c1cc(C(=O)c2nc3ccccc3s2)c(O)c(O)c1O was run?
A: Its Ki is 1110 nM.
